# Literature values in the PKSmart pharmacokinetics tables (Seal et al. 2025).
# Test: Lombardo, Berellini, Obach 2018, Drug Metab Dispos 46:1466, doi 10.1124/dmd.118.082966
# Details: human; for MRT / Vd / clearance / half-life: in vivo, iv; for fraction unbound: plasma
SMILES,MRT [h],Vd [L/kg],clearance [mL/min/kg],half-life [h],fraction unbound
C[C@@H]1C[C@H]2[C@@H]3C[C@H](F)C4=CC(=O)C=C[C@]4(C)[C@H]3[C@@H](O)C[C@]2(C)C1C(=O)CO (some centres not stated),1.6,0.68,7,1.3,0.04
CC1=C(CO)C2=C(C)C3(CC3)[C@@](C)(O)C(=O)C2=C1,0.4,3.1,140,0.3,–
COC(=O)c1cnc2n1CCc1ccccc1C2=C1CCN(CCc2ccc(OCc3ccc4ccccc4n3)cc2)CC1,7.1,6.03,14.1,10.6,0.001
NC1CCN(c2c(F)cc3c(=O)c(C(=O)O)cn(C4CC4)c3c2Cl)C1 (configuration not stated),6.7,1.9,4.7,5.4,–
C[C@H](CCC(=O)O)[C@H]1CC[C@H]2[C@@H]3[C@H](O)C[C@@H]4C[C@H](O)CC[C@]4(C)[C@H]3CC[C@]12C,0.57,0.19,5.7,1.42,–
Cc1ccnc2c1NC(=O)c1cccnc1N2C1CC1,81,1.3,0.3,53,–
CC(C)(C)NC[C@@H](O)COc1cccc2c1CCC(=O)N2,–,–,10.1,4.7,–
O=C(/C=C/c1ccc(O)cc1)C1=C(O)[C@](O)([C@@H]2O[C@H](CO)[C@@H](O)[C@H](O)[C@H]2O)C(O)=C([C@@H]2O[C@H](CO)[C@@H](O)[C@H](O)[C@H]2O)C1=O,3.6,0.2,1,2.9,0.22
O=C(O)C(O)Cc1ccc(O)c(O)c1 (configuration not stated),0.53,0.38,17.8,0.37,–
CCn1cc(C(=O)O)c(=O)c2cc(F)c(N3CCNCC3)cc21,4.5,1.88,6.96,4.45,0.13
CCCCC(=O)N(Cc1ccc(-c2ccccc2-c2nnn[nH]2)cc1)C(C(=O)O)C(C)C (configuration not stated),7.5,0.22,0.49,9.5,0.04
C[N+]1(CC2CC2)CC[C@]23c4c5ccc([O-])c4OC2C(=O)CC[C@@]3(O)[C@H]1C5 (some centres not stated),–,–,–,–,0.87
Nc1nc(-n2cc(C(=O)O)c(=O)c3cc(F)c(N4CC(O)C4)c(Cl)c32)c(F)cc1F,2.5,0.35,2.33,2.1,–
Cc1cnc(C(=O)NC2CCCCC/C=C\[C@@H]3C[C@@]3(C(=O)NS(=O)(=O)C3CC3)NC(=O)C3C[C@@H](Oc4nc5ccccc5c5ccccc45)CN3C2=O)cn1 (some centres not stated),3.96,1.37,5.74,8.71,0.022
CCCNC(=O)NS(=O)(=O)c1ccc(Cl)cc1,70,0.19,0.045,46,–
CN(C(=O)CO)c1c(I)c(C(=O)NC[C@H](O)CO)c(I)c(C(=O)NC[C@H](O)CO)c1I,2.7,0.23,1.4,2.3,1
Nc1nc(Cl)nc2c1ncn2[C@H]1C[C@H](O)[C@@H](CO)O1,9.2,7.7,14,16,0.79
CCN(CC)CCN(Cc1ccc(-c2ccc(C(F)(F)F)cc2)cc1)C(=O)Cn1c(SCc2ccc(F)cc2)nc(=O)c2c1CCC2,48.1,11.9,4.11,40.9,–

SMILES,MRT [h],Vd [L/kg],clearance [mL/min/kg],half-life [h],fraction unbound
CNC[C@H](O)CC12CCC(c3ccccc31)c1ccccc12,21.4,18.8,14.6,18.8,–
Cc1ccc(C(CN)CC(=O)O)cc1 (configuration not stated),6.36,0.65,1.7,5.24,0.69
Nc1ccncc1,4.7,2.6,9.3,3.6,1
CN1CC[C@]23c4c5ccc(O)c4O[C@H]2[C@@H](O[C@@H]2OC(C(=O)O)[C@@H](O)[C@H](O)[C@H]2O)C=C[C@H]3[C@H]1C5 (some centres not stated),0.91,0.12,2.2,1.4,0.67
C[C@H]1O[C@H](O[C@H]2[C@H](O)[C@@H](O)[C@@H](OC(C(=O)C(O)CO)[C@H](O)CO)O[C@@H]2CO)[C@H](O)[C@@H](O)[C@@H]1N[C@H]1C=C(CO)[C@@H](O)[C@H](O)[C@H]1O (some centres not stated),2.4,0.32,2.2,2.7,–
CC(C)C[C@H](NC(=O)CNC(=O)c1cc(Cl)ccc1Cl)B(O)O,119,3.61,0.5,97,0.01
CN(C)C(=O)Oc1ccc[n+](C)c1,1.8,1.1,9.6,1.5,–
Cc1[nH]c2ccccc2c1CCNCc1ccc(/C=C/C(O)=NO)cc1,–,–,10.2,13.1,0.1
C[C@@H](N/C(=N\c1ccncc1)NC#N)C(C)(C)C,3.2,1.1,5.68,2.5,0.6
CC1(C)SC2C(NC(=O)C(NC(=O)c3cnc4cccnc4c3O)c3ccccc3)C(=O)N2C1C(=O)O (configuration not stated),1.4,0.16,1.9,1.2,0.1
Oc1cc2cc(CCN3CCN(c4nsc5ccccc45)CC3)c(Cl)cc2[nH]1,3.3,1,5.1,3.1,–
C=C1CC[C@@]2(O)[C@H]3Cc4ccc(O)c5c4[C@@]2(CCN3CC2CC2)[C@H]1O5,–,–,–,–,0.65
CCC(=O)OCC(=O)[C@@]1(OC(=O)CC)[C@@H](C)C[C@H]2[C@@H]3CC=C4CC(=O)C=C[C@]4(C)[C@@]3(Cl)[C@@H](O)C[C@@]21C,0.1,0.29,36,0.5,0.13
CC(S)C(=O)NCC(=O)O (configuration not stated),15.7,1.39,1.48,55,0.45
Cc1ccc([C@@H]2O[C@H](CO)[C@@H](O)[C@H](O)[C@H]2O)cc1Cc1ccc(-c2ccc(F)cc2)s1,7.25,1.19,2.74,10.3,0.01
NC(Cc1c[nH]c2ccc(O)cc12)C(=O)O (configuration not stated),7.75,0.8,1.72,6.14,–
O=C(c1ccc(OCCN2CCCCC2)cc1)c1c(-c2ccc(O)cc2)sc2cc(O)ccc12,11.6,7.5,–,12.1,0.05
COCCN1CCN(Cc2ccc(-c3n[nH]c4c3C(=O)c3c(NC(=O)NN5CCOCC5)cccc3-4)cc2)CC1,8.5,5.9,11.5,9.9,–
